Where a name gives a salt, the structure may show the parent alone.
How the values were obtained:
[1] = tested on: bacteria bound to collagen; assay: Biosensor detachment of bacteria bound to collagen; assay type: binding; settings: 0.5M arginine, phosphoric acid 0.1M, HCl 0.1M, citric acid 0.5M
From the text: Use of Guanidine, creatine and arginine: Guanidine is a strong cytotoxic compound and can not be used in large quantities in food plants or slaughter operations. […] However, its use may be limited in the laboratory for analysis of food tissues. Therefore, a substitute for guanidine for detachment of pathogens from food carcasses was investigated. Guanidine is structurally related to creatine and arginine with a guanidyl moeity in their molecules. […] It has been shown that creatine hydrolyzes upon dissolution in water or buffer converting it to creatinine (methylglycocyamidine), a cyclic product and an end product of creatine metabolism. […] Arginine is an essential amino acid for children but not for adults. It is non-essential for adults because it can be derived from proteins in the diet. It is also inexpensive and can be obtained in bulk. Phosphoric acid (0.1M), HCl (0.1M) and citric acid (0.5M) had no effect in the detachment studies.

bacteria = assay: Bactericidal effect; assay type: cell-based; settings: pH 2.5
From the text: The present invention also includes a method of quantifying microorganisms (e.g., bacteria) on carcasses or parts thereof. To enhance detachment of microorganisms (e.g., bacteria) for sampling: Treatment of animal and poultry carcass or seafood with polysulfated polysaccharides or carboxymethyl cellulose followed by guanidine or arginine or phosphate buffer and NaCl/non-ionic surfactant may enhance detachment of microorganisms for sampling and analytical purposes. […] At pH 4.8, live bacteria may be recovered with guanidine-HCl. At pH 2.5, guanidine-HCl is bactericidal. Therefore, its use may be limited in the laboratory (FIG. 4). For “in situ” sampling in the slaughter plants, arginine, or phosphate buffer and TWEEN-80/NaCl may be used in place of guanidine (FIG. 5).
Collagen is the major component (40%) of the connective tissues. Results from the scanning electron microscopy studies illustrated the abundance of collagen strands in the fascia and connective tissues (Medina et al. (1999), Scanning Electron Microscopy Studies on Attachment of Escherichia Coli O157:H7 to Bovine Tissues, Presented at 1999 IFT Annual Meeting, Chicago, Ill., July 24-28; Poster at Gordon Research Conference on Molecular Mechanisms of Microbial Adhesions (Aug. 1-6, 1999) and at the 18th Annual Meeting of the Philippine-American Academy of Science and Engineering, Jekyll Is., Ga., Aug. 13-15, 1999). […]

Salmonella = assay: Detachment of Salmonella in sandwich immunoassay (biosensor); assay type: binding; settings: sequential .75M Arginine, 6M Guanidine, 0.25 NaCl + 0.05% Tween 80
E. coli 0157 = assay: Detachment of E. coli O157 in sandwich immunoassay (biosensor); assay type: binding; settings: sequential .75M Arginine, then 0.25 NaCl + 0.05%Tween 80
E. coli O157:H7 surface = assay: Biosensor inhibition of collagen binding to E. coli O157:H7 surface; settings: 12 trials
From the text: (§1) Biosensor Studies: A novel approach to study bacterial attachment to animal carcass was designed. The studies led to a development of a biosensor method to study binding of extracellular matrix components to the surface of immobilized bacteria. This novel approach utilized immobilized whole E. coli cells. This approach allowed the study of the binding of the lipopolysaccharides and other bacterial surface epitopes without altering their chemical structure. Conditions for immobilization and determination of the bacterial cell surface binding properties were initially assessed with anti-E. coli 0157:H7 antibody (Medina et al. (1997), Real-time analysis of antibody binding interactions with immobilized E. coli O157:H7, Biotechnology Techniques, Vol. 11 (3): 173-176). The bacterial surface was bound with an antibody produced against a heat-killed bacteria. […] The binding interactions of polysulfated polysaccharides such as heparan sulfate and iota, lambda and kappa carrageenans were determined with the extracellular matrix proteins (ECM) and the immobilized E. coli O157:H7 cells. […]

[2] = tested on: Salmonella typhimurium Sensor Surface; assay: Biosensor inhibition of collagen binding to Salmonella typhimurium sensor surface; settings: 12 trials
E. coli and Salmonella = assay: Biosensor kinetics of bacteria-collagen binding (E. coli and Salmonella pooled)
From the text: as §1

Cl [HCl]
detachment of bacteria bound to collagen [1]: no effect

CN(CC(=O)O)C(=N)N [creatine]
detachment of bacteria bound to collagen [1]: ineffective

N=C(N)N [Guanidine, guanidine]
bactericidal effect (bacteria): bactericidal
Surface RU removed from the sensor surface (Salmonella; CFU 0): −137 RU
Surface RU removed from the sensor surface (Salmonella; CFU 10E + 4): −100 RU
Surface RU removed from the sensor surface (Salmonella; CFU 10E + 5): −54 RU
Surface RU removed from the sensor surface (Salmonella; CFU 10E + 6): −22 RU
Surface RU removed from the sensor surface (Salmonella; CFU 10E + 7): −32 RU
detachment of bacteria bound to collagen [1]: very effective detachment agent

O=P(O)(O)O [Phosphoric acid]
detachment of bacteria bound to collagen [1]: no effect

N=C(N)NCCC[C@H](N)C(=O)O [Arginine, arginine]
Surface RU removed from the sensor surface (E. coli 0157; CFU 0): 99 RU
Surface RU removed from the sensor surface (E. coli 0157; CFU 10E + 3): 237 RU
Surface RU removed from the sensor surface (E. coli 0157; CFU 10E + 4): 249 RU
Surface RU removed from the sensor surface (E. coli 0157; CFU 10E + 5): 275 RU
Surface RU removed from the sensor surface (E. coli 0157; CFU 10E + 6): 299 RU
Surface RU removed from the sensor surface (E. coli 0157; CFU 10E + 7): 405 RU
Surface RU removed from the sensor surface (Salmonella; CFU 0): 75 RU
Surface RU removed from the sensor surface (Salmonella; CFU 10E + 4): 20 RU
Surface RU removed from the sensor surface (Salmonella; CFU 10E + 5): 32 RU
Surface RU removed from the sensor surface (Salmonella; CFU 10E + 6): 48 RU
Surface RU removed from the sensor surface (Salmonella; CFU 10E + 7): 96 RU
detachment of bacteria bound to collagen [1]: equally good or better than 1 M guanidine-HCl

collagen
affinity constant of collagen to E. coli binding, mean (E. coli O157:H7 surface): 3e+08 M⁻¹
affinity constant of collagen to Salmonella binding, mean [2]: 2.75e+07 M⁻¹
dissociation constants of bacteria and collagen binding (E. coli and Salmonella): 10^−8 to 10^−9 KDMole
affinity constants of collagen to E. coli and Salmonella binding, range (E. coli and Salmonella; 12 trials (each)): 10^7 to 10^8 M^−1

O=C(O)CC(O)(CC(=O)O)C(=O)O [citric acid]
detachment of bacteria bound to collagen [1]: no effect
